In US4820712A, “Sparsomycin (SC-RS) compounds having antitumor activity, a process for their preparation and pharmaceutical compositions containing sparsomycin (SC-RS) compounds” (priority 1986, dated 1989):
Where two headings read alike, the source gives them in different places.

Key:
P388 leukemia = assay: in vivo antitumor assay, P388 leukemia; design: species or system CDF1 mice
Experimental: (§1) The antitumor activity of the present compounds has also been investigated by in vivo assays. In the assays, mice were treated for nine days in succession, starting at 24 hours after the time of tumor implant.
(§2) The results are shown in tables 4, 5 and 6 and represent the number of tumor-bearing mice surviving after administration of optimal doses of the test compound, expressed as a treatment/control (T/C×100%) ratio. In the tables, information is provided with respect to the sex, dose, weight loss of treated animals compared to control animals, and the number of survivors in groups of 6 mice.

[1] = target: ribosomes from S. cerevisiae Y166 (peptidyl transferase activity); assay: fragment reaction, S. cerevisiae ribosomes; assay type: biochemical; conditions: 50% inhibition relative to control; 0° C., 30 min, 33% methanol; read-out: ED50 Fragment reaction S. cerevisiae
Experimental: (§3) The peptidyl transferase activity was measured by the polyphenylalanine synthesis assay (Nirenberg and Matthei, Proc. Natl. Acad. Sci. USA 47 (1961) 1588), the fragment reaction (Monro, Methods Enzymol. 20 (1971) 472) and the puromycin reaction. In all the in vitro tests, i.e. polyPhe synthesis, fragment reaction and puromycin reaction, ribosomes from E. coli MRE600 and S. cerevisiae Y166 were used. The reaction mixture for polyphenylalanine synthesis was slightly different for E. coli and S. cerevisiae.
(§4) The fragment reaction was carried out in 150 μl of 33 mM Tris-HCl pH 7.4, 270 mM KCl, 13 mM magnesium acetate containing 1 mg/ml of ribosomes, 2 mM puromycin, 1 pmol of N-acetyl-[^3 H]Leu-ACCAC(U), the required concentration of sparsomycin or its analogue and 33% methanol. The reaction was initiated by the addition of the alcohol and allowed to proceed at 0° C. for 30 min, and was then stopped by the addition of 100 μl of 0.3M sodium acetate pH 5.5 saturated with MgSO4. The samples were extracted with 1.5 ml of ethyl acetate and 1 ml of the organic phase was checked for radioactivity. The 3' terminal pentanucleotide N-acetyl-[^3 H]Leu-ACCAC(U) was prepared from N-acetyl-[^3 H]Leu-tRNA by ribonuclease T1 as described by Monro.
(§5) The concentration of sparsomycin or an analog giving 50% inhibition of the protein synthesis relative to the control is given in ED50.

[2] = system: RC (renal cell) carcinoma; assay: in vivo antitumor assay, RC (renal cell) carcinoma; design: species or system CDF1 mice
Experimental: as §1, §2

E. coli MRE600 = assay: inhibition of bacterial growth; assay type: cell-based
Experimental: Inhibition of bacterial growth was tested in solid as well as in liquid medium. For the test on agar plates, petri dishes containing 15 ml of LB medium (10 g/l bactotryptone, 5 g/l yeast extract and 5 g/l NaCl) were covered with 5 ml of the same medium--kept melted at 40° C.--containing 40 μl of a culture of the required bacterium at approximately an A550 of 2. After solidification, 3 mm filter disks containing 4 μl of a 10 mM solution of the antibiotic in 50EtOH/DMSO were placed on the surface of the agar and the plates were incubated at 37° C. for 24 h. For the test in liquid medium, E. coli MRE600 was grown in LB medium supplemented with 0.2% of glucose to exponential phase (A560 =0.1) and distributed in 1 ml aliquots in tubes containing the required amount of antibiotic. The tubes were incubated at 37° C. for 4 h, subsequently diluted with 3 ml of 0.1% of sodium azide to stop growth and the absorption at 550 nm was measured. The absorption of the medium without addition of antibiotic was considered as 100% growth.

L1210 leukemia = assay: in vivo antitumor assay, L1210 leukemia; design: species or system CDF1 mice
Experimental: as §1, §2

Leukemia L 1210 cells = assay: in vitro clonogenic L1210 assay (inhibition of colony formation in soft agar); assay type: cell-based; conditions: Mus musculus, L1210, 72 h, read-out: ID50 (dose giving 50% inhibition of L1210 colony formation)
Experimental: The in vitro clonogenic assay was effected in Leukemia L 1210 cells in soft agar medium (0.3%). […] In the analysis, the inhibition of the L 1210 colony formation by sparsomycin and derivatives thereof is determined for various concentrations, and the dose giving 50% inhibition of the colony formation, as compared with non-treated control cells is calculated (ID50).
From a suspension culture one hundred L 1210 cells are plated out in 35 mm culture dishes (Falcon) containing 1 ml soft agar culture medium and the compound to be investigated in suitable concentrations. The soft agar culture medium consists of Dulbecco's medium supplemented with 20% horse serum, 60 μmole 2-mercaptoethanol, 20 mg/ml L-asparagine, 75 mg/ml DEAE dextran (molecular weight 2×10^6) and 0.3% bacto agar (Difco). The culture dishes were incubated at 37° C. in an atmosphere of 10% CO2 in humidified air for 3 days. After this period of continuous exposure to the medicament the colonies were counted and dose-effect curves made. From these curves, the medicament dose is calculated which causes 50% inhibition of the colony formation as compared with non-treated control cells.

[3] = system: ribosomes from E. coli MRE600 (peptidyl transferase activity); assay: fragment reaction, E. coli ribosomes; assay type: biochemical; conditions: 50% inhibition relative to control; 0° C., 30 min, 33% methanol; read-out: ED50 Fragment reaction E. coli
Experimental: as §3, §4, §5

[4] = target: ribosomes from S. cerevisiae Y166 (peptidyl transferase activity); assay: polyphenylalanine synthesis assay, S. cerevisiae ribosomes; assay type: biochemical; conditions: concentration giving 50% inhibition relative to control; 30° C., 30 min; read-out: ED50 polyPhe synthesis S. cerevisiae
Experimental: as §3
S. cerevisiae: The test was carried out as indicated above for E. coli. The phosphoenol pyruvate and pyruvate kinase were, however, replaced by creatine phosphate (20 mM) and creatine phosphokinase (50 μg/ml). The incubation was performed at 30° C. for 30 min and the samples were processed as described above. Under these conditions the control samples polymerized 5-14 and 3-8 molecules of phenylalanine per ribosome derived from E. coli and S. cerevisiae, respectively. Ribosomes and supernatant factors from E. coli and S. cerevisiae were prepared according to standard procedures, described by Staehelin and Maglott, Methods Enzymol. 20 (1971) 449, and by Sanchez-Madrid et al, Eur. J. Biochem. 98 (1979) 409.
as §5

[5] = system: ribosomes from E. coli MRE600 (peptidyl transferase activity); assay: polyphenylalanine synthesis assay, E. coli ribosomes; assay type: biochemical; conditions: concentration giving 50% inhibition relative to control; 37° C., 30 min; read-out: ED50 polyPhe synthesis E. coli
Experimental: as §3
E. coli: The reaction mixture (50 μl) contained 50 mM Tris-HCl pH 7.6, 15 mM MgCl2, 90 mM KCl, 15 mM β-mercapto ethanol, 1 mM GTP, 10 mM ATP, 0.2 mg/ml of polyuridylic acid, 1.5 mg/ml tRNA, 0.3 μM of ribosomes, 2.5 mg/ml of phosphoenol pyruvate, 20 μg/ml of pyruvate kinase, the required concentration of sparsomycin or its analogue and 5 μl of supernatant fraction S-100. Subsequently, [^3 H]phenylalanine, 30 μM (about 60 cpm/pmol) was added to start the reaction. Incubation was at 37° C. for 30 min. The reaction was stopped by the addition of 1 ml of 10% TCA and the samples were filtered through glass fiber filters. The filters were washed with 10 ml of cold 10% TCA, dried and counted for radioactivity.
as §5

[6] = female mice, ip daily x9, dose mg/kg: 2a 3.4
[7] = female mice, ip daily x9, dose mg/kg: 2a 2.3
[8] = male mice, ip daily x9, optimal dose mg/kg: sparsomycin 0.125, n-octyl 20.0, benzyl 2.7, 2a 1.1
[9] = male mice, ip daily x9, dose mg/kg: sparsomycin 0.125, n-octyl 20.0, benzyl 2.7, 2a 1.1
[10] = female mice, ip daily x9, optimal dose mg/kg: sparsomycin 0.25, n-octyl 12.0, benzyl 10.0, 2a 2.5, 2e 13.3
[11] = female mice, ip daily x9, dose mg/kg: sparsomycin 0.25, n-octyl 12.0, benzyl 10.0, 2a 2.5, 2e 13.3
[12] = male mice, ip daily x9, optimal dose mg/kg: sparsomycin 0.125, n-octyl 20.0, benzyl 4.0, 2a 1.7
[13] = male mice, ip daily x9, dose mg/kg: sparsomycin 0.125, n-octyl 20.0, benzyl 4.0, 2a 1.7

| SMILES | IC50 [1] [µM] | T/C (survival, treatment/control x 100%) [2, 8] [%] | cures (survivors in groups of 6 mice) [2, 9] | T/C (survival, treatment/control x 100%) (L1210 leukemia; [10]) [%] | cures (survivors in groups of 6 mice) (L1210 leukemia; [11]) | T/C (survival, treatment/control x 100%) (L1210 leukemia; [12]) [%] | cures (survivors in groups of 6 mice) (L1210 leukemia; [13]) | IC50 [3] [µM] | IC50 [4] [µM] | IC50 [5] [µM] | also measured |
| --- | --- | --- | --- | --- | --- | --- | --- | --- | --- | --- | --- |
| CSC[S@+]([O-])C[C@H](C)NC(=O)/C=C/c1c(C)[nH]c(=O)[nH]c1=O [2a, (Sc Rs)-1-(methylthiomethyl)sulfinyl-2-[β-(6-methyl-5-uracilyl)acrylamido]-propane] | 5.7 | 304 | 0/6 | 184 | 0/6 | 248 | 2/6 | 4.7 | 7.5 | 15.1 | T/C (survival, treatment/control x 100%) (P388 leukemia; female mice, ip daily x9, optimal dose mg/kg: 2a 3.4): 170%; cures (survivors in groups of 6 mice) (P388 leukemia; [6]): 0/6; weight loss (T - C) (P388 leukemia; [6]): -2.3 g; T/C (survival, treatment/control x 100%) ([2]; female mice, ip daily x9, optimal dose mg/kg: 2a 2.3): 300%; cures (survivors in groups of 6 mice) [2, 7]: 0/6; weight loss (T - C) [2, 7]: -1.5 g; weight loss (T - C) [2, 9]: -0.6 g; IC50 (E. coli MRE600; Escherichia coli, MRE600, 4 h, read-out: Growth inhibition E. coli MRE600 ED50): 5.6 µM; weight loss (T - C) (L1210 leukemia; [11]): -1.4 g; weight loss (T - C) (L1210 leukemia; male mice, ip daily x9 from 24 h after implant, dose mg/kg: sparsomycin 0.125, n-octyl 20.0, benzyl 4.0, 2a 1.7): -2.0 g; IC50 (Leukemia L 1210 cells): 0.1 µM |
| CSC[S@+]([O-])C[C@H](CO)NC(=O)/C=C/c1c(C)[nH]c(=O)[nH]c1=O [Sparsomycin] | 2.8 | 100 | 0/6 | 121 | 0/6 | 105 | 0/6 | 3.2 | 5.2 | 8.5 | T/C (survival, treatment/control x 100%) (P388 leukemia; male mice, ip daily x9, optimal dose mg/kg: sparsomycin 0.125, n-octyl 22.5, benzyl 2.0, 2e 20.0): 88%; cures (survivors in groups of 6 mice) (P388 leukemia; male mice, ip daily x9, dose mg/kg: sparsomycin 0.125, n-octyl 22.5, benzyl 2.0, 2e 20.0): 0/6; weight loss (T - C) (P388 leukemia; mouse, in vivo, ip): -3.0 g; weight loss (T - C) ([2]; mouse, in vivo, ip): -1.7 g; IC50 (E. coli MRE600; Escherichia coli, MRE600, 4 h; read-out: Growth inhibition E. coli MRE600 ED50): 11 µM; weight loss (T - C) (L1210 leukemia; mouse, in vivo, ip): -1.1 g; IC50 (Leukemia L 1210 cells; soft agar 0.3%, 3 days continuous exposure, vs non-treated control cells): 0.4 µM |
